In ChEMBL document CHEMBL4359906, “Design and synthesis of new N-terminal fatty acid modified-antimicrobial peptide analogues with potent in vitro biological activity” (Eur J Med Chem, 2019):
Converted amounts (≈) assume the structure as drawn. The source made the active and inactive calls. The rule behind the calls is not given here. Where a SMILES comes first, the peptide text is derived from it.

How the values were obtained:
[1] = test system: Escherichia coli; experiment: Disruption of membrane integrity in Escherichia coli ATCC 25922 assessed as membrane damage by measuring PI fluorescence at 2 times of MIC incubated for 1 hr by PI dye based flow cytometric analysis (reference value: 1.35%); assay type: functional
[2] = test system: Escherichia coli; experiment: Ratio of antibacterial activity against Escherichia coli ATCC 25922 in presence of KCl to antibacterial activity against Escherichia coli ATCC 25922; assay type: functional
[3] = test system: Staphylococcus aureus; experiment: Antibacterial activity against Staphylococcus aureus ATCC 25923 after 18 hrs in presence of NaCl by CLSI based broth microdilution method (reference value: 64 microM); assay type: functional; details: ATCC 25923, 18 h
[4] = test system: Escherichia coli; experiment: Ratio of MIC for Escherichia coli ATCC 25922 preincubated for 1 hr in presence of 10% mouse serum and measured after 18 hrs to MIC for antibacterial activity against Escherichia coli ATCC 25922 after 18 hrs; assay type: functional
[5] = test system: Escherichia coli; experiment: Potentiation of polymyxin B-induced antibacterial activity against Escherichia coli ATCC 25922 assessed as FICI after 18 hrs by checker board assay; assay type: functional
[6] = test system: Staphylococcus aureus; experiment: Ratio of antibacterial activity against Staphylococcus aureus ATCC 25923 in presence of NaCl to antibacterial activity against Staphylococcus aureus ATCC 25923; assay type: functional
[7] = test system: Escherichia coli; experiment: Induction of ROS generation in Escherichia coli ATCC 25922; assay type: functional, organism-based
[8] = test system: Staphylococcus aureus; experiment: Antibacterial activity against methicillin-resistant Staphylococcus aureus 936 after 18 hrs by CLSI based broth microdilution method; assay type: functional; details: Staphylococcus aureus, 936, 18 h
[9] = test system: Klebsiella pneumoniae; experiment: Potentiation of polymyxin B-induced antibacterial activity against Klebsiella pneumoniae ATCC 700603 assessed as FICI after 18 hrs by checker board assay; assay type: functional
[10] = test system: Escherichia coli; experiment: Ratio of antibacterial activity against Escherichia coli ATCC 25922 in presence of NaCl to antibacterial activity against Escherichia coli ATCC 25922; assay type: functional
[11] = test system: Escherichia coli; experiment: Disruption of membrane integrity in Escherichia coli ATCC 25922 assessed as membrane damage by measuring PI fluorescence at 4 times of MIC incubated for 1 hr by PI dye based flow cytometric analysis (reference value: 1.35%); assay type: functional
[12] = test system: Klebsiella pneumoniae; experiment: Antibacterial activity against Klebsiella pneumoniae ATCC 700603 after 18 hrs by CLSI based broth microdilution method; assay type: functional; details: Klebsiella pneumoniae, 700603, 18 h
[13] = test system: Staphylococcus aureus; experiment: Antibacterial activity against Staphylococcus aureus ATCC 25923 after 18 hrs by CLSI based broth microdilution method; assay type: functional; details: ATCC 25923, 18 h
[14] = test system: Escherichia coli; experiment: Antibacterial activity against Escherichia coli ATCC 25922 after 18 hrs in presence of FeCl3 by CLSI based broth microdilution method (reference value: 64 microM); assay type: functional; details: ATCC 25922, 18 h
[15] = test system: Escherichia coli; experiment: Antimicrobial activity against Escherichia coli ATCC 25922 preincubated for 1 hr in presence of 10% mouse serum and measured after 18 hrs by CLSI-based broth microdilution assay (reference value: 64 microM); assay type: functional
[16] = test system: Escherichia coli; experiment: Antimicrobial activity against Escherichia coli ATCC 25922 at 1 mM preincubated for 6 hrs in presence of 2 ug/ml chymotrypsin and measured after 18 hrs by microplate reader analysis; assay type: functional, organism-based
[17] = test system: Staphylococcus aureus; experiment: Antibiofilm activity against Staphylococcus aureus ATCC 25923 at 1 to 2 times of MIC after 24 hrs by crystal violet staining based assay; assay type: functional, organism-based
[18] = test system: Escherichia coli; experiment: Induction of membrane disruption in Escherichia coli ATCC 25922 assessed as corrugated membrane surface at 4 times of MIC after 2 hrs by SEM analysis; assay type: functional, organism-based
[19] = test system: Staphylococcus aureus; experiment: Ratio of antibacterial activity against Staphylococcus aureus ATCC 25923 in presence of KCl to antibacterial activity against Staphylococcus aureus ATCC 25923; assay type: functional
[20] = test system: Escherichia coli; experiment: Antimicrobial activity against Escherichia coli ATCC 25922 at 1 mM preincubated for 6 hrs in presence of 0.2 ug/ml trypsin and measured after 18 hrs by microplate reader analysis; assay type: functional, organism-based
[21] = test system: Escherichia coli; experiment: Antibacterial activity against Escherichia coli ATCC 25922 after 18 hrs in presence of KCl by CLSI based broth microdilution method (reference value: 64 microM); assay type: functional; details: ATCC 25922, 18 h
[22] = test system: Escherichia coli; experiment: Antibacterial activity against Escherichia coli ATCC 25922 after 18 hrs in presence of MgCl2 by CLSI based broth microdilution method (reference value: 64 microM); assay type: functional; details: ATCC 25922, 18 h
[23] = test system: Erythrocyte; experiment: Hemolytic activity in human RBC measured after 1 hr by microplate reader analysis; assay type: ADME, cell-based
[24] = test system: Escherichia coli; experiment: Antibacterial activity against Escherichia coli ATCC 25922 after 18 hrs by CLSI based broth microdilution method; assay type: functional; details: ATCC 25922, 18 h
[25] = test system: Staphylococcus aureus; experiment: Antibacterial activity against Staphylococcus aureus ATCC 25923 after 18 hrs in presence of KCl by CLSI based broth microdilution method (reference value: 64 microM); assay type: functional; details: ATCC 25923, 18 h
[26] = test system: Staphylococcus aureus; experiment: Ratio of antibacterial activity against Staphylococcus aureus ATCC 25923 in presence of FeCl3 to antibacterial activity against Staphylococcus aureus ATCC 25923; assay type: functional
[27] = test system: Escherichia coli; experiment: Antibacterial activity against Escherichia coli ATCC 43837 after 18 hrs by CLSI based broth microdilution method; assay type: functional; details: ATCC 43837, 18 h
[28] = test system: Escherichia coli; experiment: Induction of membrane disruption in Escherichia coli ATCC 25922 assessed as degeneration in membrane at 4 times of MIC after 2 hrs by SEM analysis; assay type: functional, organism-based
[29] = Selectivity index, ratio of MHC10 for human RBC to geometric mean of peptide MIC for gram positive bacteria; assay type: toxicity; details: human red blood cells, read-out: Selectivity Index
[30] = test system: Staphylococcus aureus; experiment: Antibacterial activity against Staphylococcus aureus ATCC 25923 after 18 hrs in presence of MgCl2 by CLSI based broth microdilution method (reference value: 64 microM); assay type: functional; details: ATCC 25923, 18 h
[31] = test system: Escherichia coli; experiment: Induction of membrane disruption in Escherichia coli ATCC 25922 assessed as rough membrane surface at 4 times of MIC after 2 hrs by SEM analysis; assay type: functional, organism-based
[32] = Selectivity index, ratio of MHC10 for human RBC to geometric mean of peptide MIC for gram negative bacteria; assay type: toxicity; details: human red blood cells, read-out: Selectivity Index
[33] = test system: Pseudomonas aeruginosa; experiment: Potentiation of polymyxin B-induced antibacterial activity against Pseudomonas aeruginosa ATCC 27853 assessed as FICI after 18 hrs by checker board assay; assay type: functional
[34] = test system: Pseudomonas aeruginosa; experiment: Potentiation of rifampicin-induced antibacterial activity against Pseudomonas aeruginosa ATCC 27853 assessed as FICI after 18 hrs by checker board assay; assay type: functional
[35] = test system: Staphylococcus aureus; experiment: Antibacterial activity against Staphylococcus aureus ATCC 25923 after 18 hrs in presence of FeCl3 by CLSI based broth microdilution method (reference value: 64 microM); assay type: functional; details: ATCC 25923, 18 h
[36] = test system: Escherichia coli; experiment: Ratio of antibacterial activity against Escherichia coli ATCC 25922 in presence of MgCl2 to antibacterial activity against Escherichia coli ATCC 25922; assay type: functional
[37] = test system: Escherichia coli; experiment: Potentiation of rifampicin-induced antibacterial activity against Escherichia coli ATCC 25922 assessed as FICI after 18 hrs by checker board assay; assay type: functional
[38] = test system: Pseudomonas aeruginosa; experiment: Antibacterial activity against Pseudomonas aeruginosa ATCC 27853 after 18 hrs by CLSI based broth microdilution method; assay type: functional; details: ATCC 27853, 18 h
[39] = test system: Escherichia coli; experiment: Antimicrobial activity against Escherichia coli ATCC 25922 preincubated for 6 hrs in presence of 10% mouse serum and measured after 18 hrs by CLSI-based broth microdilution assay (reference value: 64 microM); assay type: functional
[40] = test system: Escherichia coli; experiment: Induction of membrane disruption in Escherichia coli ATCC 25922 assessed as fracture in membrane at 4 times of MIC after 2 hrs by SEM analysis; assay type: functional, organism-based
[41] = test system: Escherichia coli; experiment: Antibacterial activity against Escherichia coli ATCC 25922 after 18 hrs in presence of NaCl by CLSI based broth microdilution method (reference value: 64 microM); assay type: functional; details: ATCC 25922, 18 h
[42] = test system: Escherichia coli; experiment: Ratio of MIC for Escherichia coli ATCC 25922 preincubated for 6 hrs in presence of 10% mouse serum and measured after 18 hrs to MIC for antibacterial activity against Escherichia coli ATCC 25922 after 18 hrs; assay type: functional
[43] = test system: Bacillus subtilis; experiment: Antibacterial activity against Bacillus subtilis ATCC 23857 after 18 hrs by CLSI based broth microdilution method; assay type: functional; details: ATCC 23857, 18 h
[44] = test system: Staphylococcus aureus; experiment: Ratio of antibacterial activity against Staphylococcus aureus ATCC 25923 in presence of MgCl2 to antibacterial activity against Staphylococcus aureus ATCC 25923; assay type: functional
[45] = test system: Escherichia coli; experiment: Ratio of antibacterial activity against Escherichia coli ATCC 25922 in presence of FeCl3 to antibacterial activity against Escherichia coli ATCC 25922; assay type: functional
[46] = test system: Klebsiella pneumoniae; experiment: Potentiation of rifampicin-induced antibacterial activity against Klebsiella pneumoniae ATCC 700603 assessed as FICI after 18 hrs by checker board assay; assay type: functional
[47] = test system: Escherichia coli; experiment: Antibacterial activity against Escherichia coli ATCC 25922 at 0.5 times MIC incubated for 18 hrs measured at 1 passages by CLSI based broth microdilution method; assay type: functional, organism-based
[48] = test system: Escherichia coli; experiment: Ratio of MIC for antibacterial activity against Escherichia coli ATCC 25922 after 15 passages to MIC for antibacterial activity against Escherichia coli ATCC 25922 incubated for 18 hrs; assay type: functional

For `CC[C@H](C)[C@H](NC(=O)[C@H](CCCNC(=N)N)NC(=O)[C@H](CCCCN)NC(=O)[C@H](CC(C)C)NC(=O)[C@H](CC(C)C)NC(=O)CN)C(=O)N[C@@H](CCCCN)C(=O)N[C@H](C(=O)N[C@@H](CC(C)C)C(=O)N[C@@H](CC(C)C)C(N)=O)[C@@H](C)O` [ANOPLIN] (H-GLLKRIKTLL-NH2), the Activity [1] was 20.4%, the Ratio [2] was 2 - 4 and the MIC [3] was over 128 µM. The Ratio [4] was 1, the “fractional inhibitory concentration index (FICI)” value [5] was 0.1875 and the Ratio [6] was 2 - 4. The Activity [7] was “inactive”, the MIC [8] was 64 µM (≈ 73.8 µg/mL) and the “fractional inhibitory concentration index (FICI)” value [9] was 0.3125. For the same molecule, the Ratio [10] was 2 - 4, the Activity [11] was 62.1% and the MIC [12] was 64 µM (≈ 73.8 µg/mL). It also gave an MIC [13] of 64 µM (≈ 73.8 µg/mL), an MIC [14] of 32 µM and an MIC [15] of 64 µM. For the same molecule, the Activity [16] was “inactive”, the inhibition [17] was “Active” and the Activity [18] was “Active”. For the same molecule, the Ratio [19] was 2 - 4, the Activity [20] was “inactive” and the MIC [21] was 32 µM. The MIC [22] was 32 µM, the MHC10 [23] was over 256 µM and the MIC [24] was 64 µM (≈ 73.8 µg/mL). The MIC [25] was 64 µM, the Ratio [26] was 2 - 4 and the MIC [27] was 8 µM (≈ 9.23 µg/mL). For the same molecule, the Activity [28] was “Active”, the selectivity ratio [29] was 11.3 and the MIC [30] was over 128 µM. For the same molecule, the Activity [31] was “Active”, the selectivity ratio [32] was 13.5 and the “fractional inhibitory concentration index (FICI)” value [33] was 0.3125. For the same molecule, the “fractional inhibitory concentration index (FICI)” value [34] was 0.1875, the MIC [35] was 128 µM and the Ratio [36] was 2 - 4. For the same molecule, the “fractional inhibitory concentration index (FICI)” value [37] was 0.125, the MIC [38] was 16 µM (≈ 18.5 µg/mL) and the MIC [39] was over 128 µM. For the same molecule, the Activity [40] was “Active”, the MIC [41] was 128 µM and the Ratio [42] was over 2. The MIC [43] was 8 µM (≈ 9.23 µg/mL), the Ratio [44] was 2 - 4 and the Ratio [45] was 2 - 4. For the same molecule, the “fractional inhibitory concentration index (FICI)” value [46] was 0.125.

For `CO[C@H]1/C=C/O[C@@]2(C)Oc3c(C)c(O)c4c(O)c(c(/C=N/N5CCN(C)CC5)c(O)c4c3C2=O)NC(=O)/C(C)=C\C=C\[C@H](C)[C@H](O)[C@@H](C)[C@@H](O)[C@@H](C)[C@H](OC(C)=O)[C@@H]1C` [RIFAMPIN], the Activity [47] was “Active”, the MIC [8] was under 1 µM and the MIC [12] was 32 µM (≈ 26.3 µg/mL). For the same molecule, the MIC [13] was under 1 µM, the MIC [24] was 4 µM (≈ 3.29 µg/mL) and the MIC [27] was 2 µM (≈ 1.65 µg/mL). For the same molecule, the Ratio [48] was over 32, the MIC [38] was 32 µM (≈ 26.3 µg/mL) and the MIC [43] was under 1 µM.
